How the values were obtained:
Cyprinodon variegatus = assay: 48 hour acute static renewal toxicity bioassay, Cyprinodon variegatus (E.P.A./600/4-85/013); assay type: in vivo; conditions: EPA Probit Analysis
Description: (§1) A nutrient mixture and coating were prepared as described in example 1. The toxicity of the product as expressed by reduced survival of organisms exposed to various dilutions of the product was determined through a 48 hour acute static renewal bioassay using Mysidopsis bahia and Cyprinodon variegatus. E.P.A./600/4-85/013 test protocol was followed. All organisms were maintained at room temperature with a light/dark cycle of 16/8. Dilution water was made from Tropic Marine Synthetic Sea Salt and was aerated for 24 hours before use in the test. The test was performed in 600 ml polypropylene diSPo beakers rinsed in the dilution water. Ten organisms of Mysidopsis bahia were placed in 200 ml of dilution water making a 5 cm depth. Ten organisms of Cyprinodon variegatus were placed in 500 ml of dilution water making a 9.5 cm depth.
(§2) Dissolved oxygen, pH, conductivity and salinity, alkalinity and hardness were measured before water renewal. CdCl supplied by the E.P.A. was used as the reference toxicant for both of the Mysidopsis and Cyprinodon organisms. Both the Mysidopsis and the Cyprinodons used in this test were obtained from Aquatox, Inc., and were approximately 27 days old at the time of testing. Both batches of organisms were acclimated to the proper salinity, by adding 300 ml of synthetic, fresh water, every hour until test initiation. […]

Mysidopsis bahia = assay: 48 hour acute static renewal toxicity bioassay, Mysidopsis bahia (E.P.A./600/4-85/013); assay type: in vivo; conditions: EPA Probit Analysis
Description: as §1, §2

[Cl][Cd][Cl] [CdCl] was tested. Which “EC50 (reduced survival), reference toxicant” value (Cyprinodon variegatus) did it give?
Its value is 7.8237 µg/mL.

And the “EC50 (reduced survival), reference toxicant” value (Mysidopsis bahia)?
Its value is 0.1185 µg/mL.

Source: patent US5725885A, “Composition for enhanced bioremediation of oil” (BioNutraTech, priority 1995, dated 1998)
